Reference: the METLIN SMRT retention time set (Domingo-Almenara et al. 2019)

Test: gradient 5% acetonitrile 3 min, to 50% in 2 min, to 85% in 15 min, held 3 min, 100 µL/min
Details: column: Zorbax Extend-C18 2.1 x 50 mm; eluents: water / acetonitrile, 0.1% formic acid
Procedure, shortened: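 Pure standards were run in mixtures of ~100 molecules by HPLC coupled to a quadrupole time-of-flight mass spectrometer. The column was a Zorbax Extend-C18 (2.1 × 50 mm, 1.8 μm) at 100 μL/min, with water and acetonitrile each containing 0.1% formic acid, in positive and negative ionization mode. Dead and dwell volumes were 40 μL and 900 μL. Retention time was taken from computationally picked adduct peaks, each manually inspected, with data collected over 3 months.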

| Structure (SMILES) | RP-LC retention time |
| --- | --- |
| COc1ccc(-c2csc3c(=O)n(CC(=O)OC(C)C)cnc23)cc1 | 939 s |
| CCCS(=O)(=O)N1CCC2(CC1)CN(Cc1ccc(OC)cc1)C2=O | 787 s |
| Cc1cccc(OCc2nc(-c3ccc(-c4csc(C5CC5)n4)cc3)no2)c1 | 784 s |
| CC(=O)c1ccc(NC(=O)c2c[nH]c3ncccc23)cc1 | 652 s |
| O=S(=O)(NCc1ccc2c(c1)OCO2)N1CCOCC1 | 677 s |
| COc1ccc(OCC2c3cc(OC)c(OC)cc3CCN2C(=O)CC(C)C)cc1 (centres undefined) | 891 s |
| COC(=O)c1cccc(Nc2c(-c3ccc(N4CCOCC4)cc3)nc3cnccn23)c1 | 754 s |
| Cn1nccc1-c1cccc(-c2noc(/C=C/c3ccccc3Cl)n2)c1 | 1290 s |
| CCCCCNC(=O)C1CCN(c2cc(Sc3cc(C)ccc3C)ncn2)CC1 | 951 s |
| Cc1cc(C)cc(Nc2ncccc2S(N)(=O)=O)c1 | 898 s |
| CCOc1ccc(-c2ccnc3c(C(=O)Nc4cc(C)cc(C)c4)cnn23)cc1 | 1320 s |
| CCCc1nc(NCc2cccnc2)ncc1C(=O)O | 569 s |
| CC(Cc1ccco1)NC(=O)CCCn1c(=O)c2cccn2c2ccc(Br)cc21 (centres undefined) | 924 s |
| CCOc1cccc(CNC(=O)c2cnc(-c3ccccc3)nc2-c2ccncc2)c1 | 855 s |
| COc1ccc(OC)c(S(=O)(=O)NCc2ccc3c(c2)CCN3C(C)=O)c1 | 719 s |
| CC(C)C(=O)N1CC[C@H](CO)[C@H](NC(=O)C2CC2)C1 | 583 s |
| COCCCNC(=O)c1ccc2c(c1)N=C(C)c1cc(Cl)ccc1S2 | 914 s |
| CCOC(=O)c1noc2ncnc(Nc3ccccc3CC)c12 | 948 s |
| Cc1ccc(NS(=O)(=O)c2cc3n(c2)CCN(C(C)C)C3=O)cc1C | 794 s |
| CCN1CCN(c2c(C(=O)c3ccc(C)c(C)c3)cnc3cc(OC)c(OC)cc23)CC1 | 579 s |
| Cc1noc(C)c1CNC(=O)c1ccc2[nH]ccc2c1 | 574 s |
| Cc1ccc(-c2noc(Cc3nnc(-c4ccccc4)o3)n2)cc1C | 1100 s |
| Cn1cnc2ccc(-c3noc(CCc4c[nH]c5ccccc45)n3)cc21 | 731 s |

| Structure (SMILES) | RP-LC retention time |
| --- | --- |
| COc1cc(-n2cnc3cc(C(=O)NCC4CCCO4)ccc32)cc(OC)c1OC (centres undefined) | 660 s |
| O=C1Nc2ccc(I)cc2C1=Cc1cc(Br)c(O)c(Br)c1 | 1090 s |
| CN(C)c1ccc(CNC(=O)CCc2c(-c3ccc(Cl)cc3)nc3ccccn23)cc1 | 588 s |
| O=C(CN1CC=C(c2cnn(-c3ccccc3)c2)CC1)N1CCCc2ccccc21 | 726 s |
| COc1cccc(NC(=O)Nc2ccc3nc4n(c(=O)c3c2)CCC4)c1 | 673 s |
| CCc1cccc(C)c1Nc1c(-c2ccc(OC)c(OC)c2)nc2cnccn12 | 805 s |
| O=c1c2oc3ccccc3c2ncn1Cc1nc(-c2ccc(F)cc2)no1 | 945 s |
| CCn1c(CN2CCN(S(C)(=O)=O)CC2)nc2cc(NC(=O)CC(C)C)ccc21 | 630 s |
| c1ccc(-c2nc(C3CC3)no2)c(OC2CNC2)c1 | 614 s |
| CNc1nc(Nc2ccccc2C)nc2ccccc12 | 664 s |
| COc1cccc(C(=O)NC2CCN(c3cc(-c4cccs4)[nH]n3)C2)c1 (centres undefined) | 700 s |
| CCCNC(=O)CCNc1c(-c2ccccc2C)nc2cnccn12 | 607 s |
| Cc1ccc2c(c1)sc1nncn12 | 749 s |
| CCc1nnc(-c2cc(C)n(CC(=O)Nc3cccc(SC)c3)c2C)o1 | 846 s |
| Cc1c(C)n(-c2ccc(Cl)cc2)c2ncn(CC(=O)NCc3ccco3)c(=O)c12 | 868 s |
| CCn1cc(-c2nc(-c3ccc(F)cc3)no2)c(=O)c2cc(F)c(N3CCOCC3)cc21 | 951 s |
| CC(C)(C)c1ccc(C(=O)NC2CCN(c3cc(-c4ccc(Cl)cc4)[nH]n3)C2)cc1 (centres undefined) | 976 s |
| CN(C)[C@@H]1CN(C(=O)CC2CCCCC2)CC[C@@H]1CO | 615 s |
| COc1ccc(C(=O)Nc2ccc(CC(=O)N3CCOCC3)cc2)c(OC)c1OC | 679 s |
| COc1ccc(Cn2ccc3nc(C)c(C(=O)NCCc4c[nH]c5ccccc45)cc3c2=O)cc1 | 807 s |
| CC1(C)COc2ccc(NC(=O)NCc3cccc4ccccc34)cc2NC1=O | 602 s |
| CC(C)Cc1cc(-c2nn3c(-c4cccc(Cl)c4)nnc3s2)n[nH]1 | 1080 s |
| O=C(Nc1cccc(OCc2nnc(-c3ccccc3)o2)c1)C1COc2ccccc2O1 (centres undefined) | 1010 s |

Second part, the molecule after the results:

| RP-LC retention time | Structure (SMILES) |
| --- | --- |
| 610 s | COc1ccc(Nc2c(C(=O)N3CCCC(C)C3)cnc3nc(C)ccc23)cc1OC (centres undefined) |
| 726 s | CC1CCN(C(=O)CC2Sc3ncccc3N(C)C2=O)CC1 (centres undefined) |
| 559 s | CSc1ccccc1NC(=O)C(=O)NN1CCN(C)CC1 |
| 668 s | O=C(c1csc(N2CCN(c3ccccc3)CC2)n1)N1CCC(N2CCCCC2)CC1 |
| 648 s | CC(C)Nc1nc(N2CCN(C3CCCCC3)CC2)nc2c1cnn2C |
| 829 s | Cc1ccc(-c2cn3c(CC(=O)NC4CCCCC4)csc3n2)cc1C |
| 852 s | O=C(Cn1cc(-c2ccccc2)c2ncn(C3CC3)c(=O)c21)NCc1ccc2c(c1)OCO2 |
| 566 s | O=C(c1ccc(S(=O)(=O)c2ccccc2)nc1)N1CCN(C2CCCCC2)CC1 |
| 957 s | Cc1cc2nc(C(F)(F)F)c(=O)n(C(C)C(=O)N3CCN(C(=O)c4ccco4)CC3)c2cc1C (centres undefined) |
| 558 s | O=C(NCc1ccccn1)C1CCN(c2cc(N3CCCCC3)ncn2)CC1 |
| 663 s | COC(=O)c1ccc(Cl)cc1NC(=O)N1CCN(CCn2cnc3cccnc32)CC1 |
| 662 s | Cc1ccc(CNC(=O)C2(C)Cn3nc(C(=O)N4CCOCC4)cc3C(=O)N2C)cc1 (centres undefined) |
| 630 s | O=C(CCn1c(N2CCCCC2)nc2ccccc2c1=O)N1CCN(c2ccccn2)CC1 |
| 817 s | Cn1nccc1C(=O)N1CCCC1c1ccc(Cl)cc1 (centres undefined) |
| 582 s | COc1ccc2ncc(C(=O)c3ccc(C)cc3)c(N3CCN(C)CC3)c2c1 |
| 783 s | O=C1CCc2cc(NS(=O)(=O)Cc3ccccc3Cl)ccc2N1 |
| 789 s | O=C(c1cc(Sc2cccc(Cl)c2)nc2ccccc12)N1CCN(c2ccccn2)CC1 |
| 802 s | O=C1CCCc2cc(S(=O)(=O)N3CCC(C(=O)N4CCc5ccccc54)CC3)ccc2N1 |
| 755 s | COc1ccc(C(=O)N2CCC3(CC2)N=C(c2ccccc2)NO3)c(OC)c1 |
| 1020 s | O=C(O)c1ccc2c(c1Nc1ccccc1)C(=O)c1ccccc1C2=O |
| 690 s | CCc1nnc2cc(N3CCN(S(=O)(=O)c4cccc(F)c4)CC3)cnn12 |
| 757 s | O=C(COc1ccc(-c2nnc3n2CCCC3)cc1)Nc1ccc(Cl)cc1 |

| RP-LC retention time | Structure (SMILES) |
| --- | --- |
| 649 s | CNC(=O)C1CCCN(c2nc3ncn(CC(=O)Nc4ccc(C(=O)OC)cc4)c(=O)c3s2)C1 (centres undefined) |
| 855 s | CC1=C(c2ccc(C)c(C)c2)S(=O)(=O)N=C1N1CCC(C(=O)NC(C)Cc2ccco2)CC1 (centres undefined) |
| 627 s | O=C(Nc1ccccc1F)N1C[C@H]2C[C@H](C1)[C@H]1CCCC(=O)N1C2 |
| 860 s | Cc1cc(C)cc(C(=O)N2CCC(C(=O)NCc3csc(-c4cccs4)n3)CC2)c1 |
| 1380 s | COC(=O)c1ccc2c(=O)n(CCc3ccccc3)c(N3CCC(C)CC3)nc2c1 |
| 825 s | O=C(NCc1ccccc1)N1CCN(Cc2nc3cc(-c4ccccc4)ccc3o2)CC1 |
| 625 s | Cc1ccc(CN2CCC(CNS(=O)(=O)c3ccc4c(c3)CCCC(=O)N4)C2)cc1 (centres undefined) |
| 794 s | O=C(C1CC1)N1CCc2sc(S(=O)(=O)NCc3cccs3)cc2C1 |
| 977 s | O=C(NCc1noc(CCc2ccccc2)n1)c1ccc(-c2noc(C3CC3)n2)cc1 |
| 1300 s | COc1cccc(-c2nc(C3CCN(S(=O)(=O)c4ccc(C(C)C)cc4)CC3)no2)c1 |
| 691 s | N#Cc1ccc(C(=O)N2CC(n3cc(COCC4CC4)nn3)C2)cc1 |
| 729 s | CCN1CCCn2cc(S(=O)(=O)Nc3cc(F)ccc3C)cc2C1=O |
| 856 s | Cc1ccc(CC(=O)N2CCC(COc3ccc(C(=O)NC4CC4)cc3)CC2)cc1 |
| 1250 s | Cc1ccc(-c2noc(-c3ccccc3S(=O)(=O)N3CCCCC3C)n2)cc1 (centres undefined) |
| 847 s | Cc1ccc(NC(=O)C2CCN(S(=O)(=O)c3cc(C(=O)N(C)C)cs3)CC2)cc1F |
| 1050 s | CC1CCCCN1c1nc(-c2ccc(C(C)(C)C)cc2)nc2ccccc12 (centres undefined) |
| 880 s | CCOc1ccc(NC(=O)C2CCN(S(=O)(=O)c3ccc4c(c3)NC(=O)C(C)O4)CC2)cc1 (centres undefined) |
| 868 s | Cc1cc(OCC(=O)NCc2ccc(Cl)cc2)nc(N2CCN(c3ccccc3)CC2)n1 |
| 751 s | Cc1ccc(S(=O)(=O)NC(=O)Nc2nccs2)cc1 |
| 979 s | CCS(=O)(=O)N1CC(=O)N(c2ccc(C)cc2)C(C)(C(=O)NC2CCCCCCC2)C1 (centres undefined) |
| 1030 s | CCOCCCNC(=O)c1cn(CC)nc1S(=O)(=O)N1CCN(c2cccc(Cl)c2)CC1 |
